Experimental data: PMC11203676, “Synthesis, Molecular Electron Density Theory Study, Molecular Docking, and Pharmacological Evaluation of New Coumarin–Sulfonamide–Nitroindazolyl–Triazole Hybrids as Monoamine Oxidase Inhibitors” (International Journal of Molecular Sciences, 2024)

Legend:
hMAO-A = target: T1, hMAO-A (Homo sapiens, UniProt P21397); assay: biochemical; settings: for inhibition at 10 µM: read-out: hMAO-A % Inhibition
T1 construct: purchased Sigma Aldrich (Milan, Italy); host or cells: baculovirus-infected insect cells
T1 sequence (P21397 1-527): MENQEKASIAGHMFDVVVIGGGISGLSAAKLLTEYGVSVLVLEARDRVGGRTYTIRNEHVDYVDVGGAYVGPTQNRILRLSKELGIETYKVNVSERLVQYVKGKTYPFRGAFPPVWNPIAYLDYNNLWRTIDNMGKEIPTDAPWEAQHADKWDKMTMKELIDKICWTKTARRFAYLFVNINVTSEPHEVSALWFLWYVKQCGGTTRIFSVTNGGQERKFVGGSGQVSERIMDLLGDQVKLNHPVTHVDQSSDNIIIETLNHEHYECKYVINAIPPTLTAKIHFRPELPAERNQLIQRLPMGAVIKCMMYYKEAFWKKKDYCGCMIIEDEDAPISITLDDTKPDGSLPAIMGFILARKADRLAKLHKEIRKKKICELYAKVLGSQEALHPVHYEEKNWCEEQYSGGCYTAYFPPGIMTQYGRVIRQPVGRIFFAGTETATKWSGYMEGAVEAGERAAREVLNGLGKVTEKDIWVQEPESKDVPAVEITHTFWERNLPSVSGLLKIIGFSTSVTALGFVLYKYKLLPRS
Experimental: (§1) Human recombinant AChE, BChE from human serum, and human MAOs from baculovirus-infected insect cells were purchased from Sigma Aldrich (Milan, Italy). […] All experiments were carried out in triplicate and results expressed as mean ± SEM.
(§2) AChE/BChE and MAO A/B inhibition were, respectively, determined with the spectrophotometric method of Ellman, and a fluorimetric method using kynuramine as MAO substrate, as previously described.

[1] = target: T2, hAChE (human recombinant AChE) (Homo sapiens, UniProt P22303); assay: biochemical
T2 construct: purchased Sigma Aldrich (Milan, Italy)
T2 sequence (P22303 32-614): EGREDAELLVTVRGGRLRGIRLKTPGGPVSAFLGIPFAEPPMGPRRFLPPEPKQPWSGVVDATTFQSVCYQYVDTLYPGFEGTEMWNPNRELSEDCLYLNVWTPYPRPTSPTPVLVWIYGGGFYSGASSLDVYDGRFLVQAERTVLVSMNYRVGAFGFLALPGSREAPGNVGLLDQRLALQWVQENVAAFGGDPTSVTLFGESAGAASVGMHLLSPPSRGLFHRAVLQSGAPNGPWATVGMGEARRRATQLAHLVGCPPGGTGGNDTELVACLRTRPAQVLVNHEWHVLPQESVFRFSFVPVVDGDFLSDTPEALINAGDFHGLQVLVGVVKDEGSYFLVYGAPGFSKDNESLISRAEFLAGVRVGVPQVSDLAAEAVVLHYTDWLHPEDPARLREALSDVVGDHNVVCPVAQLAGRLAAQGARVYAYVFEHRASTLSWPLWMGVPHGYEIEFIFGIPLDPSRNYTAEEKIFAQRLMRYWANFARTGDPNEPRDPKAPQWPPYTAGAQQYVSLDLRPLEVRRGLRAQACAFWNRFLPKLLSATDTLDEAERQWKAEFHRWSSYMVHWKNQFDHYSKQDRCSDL
Experimental: as §1, §2

hMAO-B = target: T3, hMAO-B (Homo sapiens, UniProt P27338); assay: MAO-B inhibition, fluorimetric method with kynuramine as substrate; type: biochemical; settings: read-out: hMAO-B % Inhibition
T3 construct: purchased Sigma Aldrich (Milan, Italy); host or cells: baculovirus-infected insect cells
T3 sequence (P27338 1-520): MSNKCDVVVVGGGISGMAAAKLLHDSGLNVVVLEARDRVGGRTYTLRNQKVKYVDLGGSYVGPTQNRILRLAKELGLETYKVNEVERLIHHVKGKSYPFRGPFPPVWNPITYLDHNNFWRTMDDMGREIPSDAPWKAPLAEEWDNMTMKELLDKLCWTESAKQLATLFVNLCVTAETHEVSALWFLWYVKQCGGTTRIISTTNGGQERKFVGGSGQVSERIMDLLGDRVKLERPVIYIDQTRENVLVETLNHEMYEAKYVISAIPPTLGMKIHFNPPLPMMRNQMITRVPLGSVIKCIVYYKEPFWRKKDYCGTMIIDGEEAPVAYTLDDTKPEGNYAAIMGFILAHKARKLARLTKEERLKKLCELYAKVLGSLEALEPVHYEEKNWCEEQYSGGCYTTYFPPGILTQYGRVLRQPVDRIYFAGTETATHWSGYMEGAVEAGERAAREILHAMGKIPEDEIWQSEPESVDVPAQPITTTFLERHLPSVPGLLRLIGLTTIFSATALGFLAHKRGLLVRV
Experimental: as §1, §2

[2] = target: T4, hBChE (BChE from human serum) (Homo sapiens, UniProt P06276); assay: BChE inhibition, spectrophotometric method of Ellman; type: biochemical; settings: at 10 µM concentration; ni: no inhibition; mean ± SEM (n = 3)
T4 construct: BChE from human serum; purchased Sigma Aldrich (Milan, Italy); host or cells: human serum
T4 sequence (P06276 29-602): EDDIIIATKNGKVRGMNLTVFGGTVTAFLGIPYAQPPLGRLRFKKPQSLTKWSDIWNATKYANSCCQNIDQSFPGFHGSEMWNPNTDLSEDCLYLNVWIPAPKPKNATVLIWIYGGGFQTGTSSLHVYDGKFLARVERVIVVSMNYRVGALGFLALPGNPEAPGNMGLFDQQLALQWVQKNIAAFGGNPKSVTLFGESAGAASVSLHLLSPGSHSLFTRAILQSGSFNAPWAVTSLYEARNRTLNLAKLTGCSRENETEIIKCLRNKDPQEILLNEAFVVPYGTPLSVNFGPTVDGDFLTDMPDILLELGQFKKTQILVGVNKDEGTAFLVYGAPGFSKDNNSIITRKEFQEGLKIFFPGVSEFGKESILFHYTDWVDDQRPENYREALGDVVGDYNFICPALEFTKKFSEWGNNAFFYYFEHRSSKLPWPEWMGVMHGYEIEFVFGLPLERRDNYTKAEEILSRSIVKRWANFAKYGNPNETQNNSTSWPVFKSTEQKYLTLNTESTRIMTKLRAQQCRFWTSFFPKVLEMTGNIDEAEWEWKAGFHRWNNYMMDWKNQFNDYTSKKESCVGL
Experimental: as §1, §2

| melting point [°C] | Structure (SMILES) | IC50 (hMAO-A) [µM] | inhibition at 10 µM (hMAO-A) [%] | inhibition at 10 µM [1] [%] | inhibition at 10 µM (hMAO-B) [%] | inhibition at 10 µM [2] [%] | hBChE % Inhibition [2] |
| --- | --- | --- | --- | --- | --- | --- | --- |
| – | COc1ccc(S(=O)(=O)N(Cc2cn(CCn3ncc4ccc([N+](=O)[O-])cc43)nn2)c2ccc3oc(=O)ccc3c2)cc1 [14b, 4-Methoxy-N-((1-(2-(6-nitro-1H-indazol-1-yl)ethyl)-1H-1,2,3-triazol-4-yl)methyl)-N-(2-oxo-2H-chromen-6-yl)benzenesulfonamide] | 16.9 ± 1.9 | 81 ± 5 | 44 ± 3 | 23 ± 4 | 31 ± 5 | – |
| – | C#CCN(c1ccc2oc(=O)ccc2c1)S(=O)(=O)c1ccc(C)cc1 [13a, 4-Methyl-N-(2-oxo-2H-chromen-6-yl)-N-(prop-2-yn-1-yl)benzenesulfonamide] | – | 13 ± 5 | 60 ± 3 | 12 ± 1 | – | ni |
| – | Cc1ccc(S(=O)(=O)N(Cc2cn(CCn3ncc4ccc([N+](=O)[O-])cc43)nn2)c2ccc3oc(=O)ccc3c2)cc1 [14a, 4-Methyl-N-((1-(2-(6-nitro-1H-indazol-1-yl)ethyl)-1H-1,2,3-triazol-4-yl)methyl)-N-(2-oxo-2H-chromen-6-yl)benzenesulfonamide] | 14.8 ± 1.6 | 76 ± 5 | 51 ± 2 | 39 ± 3 | 48 ± 4 | – |
| – | O=c1ccc2cc(NS(=O)(=O)c3ccc(Cl)cc3)ccc2o1 [11c, 4-Chloro-N-(2-oxo-2H-chromen-6-yl)benzenesulfonamide] | – | 9 ± 4 | 55 ± 3 | 26 ± 4 | – | ni |
| – | Cc1ccc(S(=O)(=O)Nc2ccc3oc(=O)ccc3c2)cc1 [11a, 4-Methyl-N-(2-oxo-2H-chromen-6-yl)benzenesulfonamide] | 2.46 ± 0.67 | 76 ± 3 | 55 ± 3 | 45 ± 2 | – | ni |
| – | O=c1ccc2cc(N(Cc3cn(CCn4ncc5ccc([N+](=O)[O-])cc54)nn3)S(=O)(=O)c3ccc(Cl)cc3)ccc2o1 [14c, 4-Chloro-N-((1-(2-(6-nitro-1H-indazol-1-yl)ethyl)-1H-1,2,3-triazol-4-yl)methyl)-N-(2-oxo-2H-chromen-6-yl)benzenesulfonamide] | 28 ± 2.2 | 67 ± 5 | 42 ± 1 | 45 ± 1 | – | ni |
| – | COc1ccc(S(=O)(=O)Nc2ccc3oc(=O)ccc3c2)cc1 [11b, 4-Methoxy-N-(2-oxo-2H-chromen-6-yl)benzenesulfonamide] | – | 26 ± 3 | 57 ± 4 | 34 ± 3 | – | ni |
| – | C#CCN(c1ccc2oc(=O)ccc2c1)S(=O)(=O)c1ccc(Cl)cc1 [13c, 4-Chloro-N-(2-oxo-2H-chromen-6-yl)-N-(prop-2-yn-1-yl)benzenesulfonamide] | – | 37 ± 5 | 48 ± 2 | 20 ± 2 | – | ni |
| – | C#CCN(c1ccc2oc(=O)ccc2c1)S(=O)(=O)c1ccc(OC)cc1 [13b, 4-Methoxy-N-(2-oxo-2H-chromen-6-yl)-N-(prop-2-yn-1-yl)benzenesulfonamide] | – | 22 ± 7 | 49 ± 3 | 28 ± 2 | – | ni |
| 244 to 246 | CN(c1ccc2oc(=O)ccc2c1)S(=O)(=O)c1ccc(Cl)cc1 | – | – | – | – | – | – |
